# Where a name gives a salt, the structure may show the parent alone.
# Molecular target: T1, IRE1α (Homo sapiens, UniProt O75460, D688N)
# T1 construct: containing the kinase and RNase domains (KR, AA G547-L977, D688N); made in house; host or cells: Sf9 insect cells
# Assay: IRE1α TR-FRET competition binding assay (HTRF)
# Details: His-tagged IRE1α kinase dead construct (KR, AA G547-L977, D688N); Alexa fluor 647-labeled ATP competitive probe 2 nM; read-out: IRE1α (alpha) HTRF (IC50)
# Description: To determine the affinity of compound binding to the kinase domain of IRE1α, a time-resolved fluorescence resonance energy transfer (TR-FRET) competition assay was used.
# A His-tagged IRE1α kinase dead construct containing the kinase and RNase domains (KR, AA G547-L977, D688N) was expressed in Sf9 insect cells. The purified protein (final concentration 0.25 nM) was pre-incubated with anti-His Europium labeled antibody (Life Technologies PV5596, final concentration 2 nM) for one hour at 4° C. in TR-FRET Assay Buffer (50 mM HEPES, pH 7.5, 10 mM MgCl2, 0.083 mM Brij 35, 1 mM DTT, and 0.1% bovine gamma globulin) prior to addition to test compounds. An Alexa fluor 647-labeled probe based on an ATP competitive inhibitor was added to a final concentration of 2 nM. Reactions were carried out for one hour at room temperature in a final volume of 20 μL in 384 well white ProxiPlates (Perkin Elmer 6008289). Binding of the probe to the IRE1α protein was detected in an Envision instrument (PerkinElmer) equipped with a TRF laser option and a LANCE/Delfia Dual/Bias D400/D630 mirror (Ex 347 nm, 1st Em 665 nm, 2nd Em 615 nm).
# T1 sequence (O75460 547-977 D688N): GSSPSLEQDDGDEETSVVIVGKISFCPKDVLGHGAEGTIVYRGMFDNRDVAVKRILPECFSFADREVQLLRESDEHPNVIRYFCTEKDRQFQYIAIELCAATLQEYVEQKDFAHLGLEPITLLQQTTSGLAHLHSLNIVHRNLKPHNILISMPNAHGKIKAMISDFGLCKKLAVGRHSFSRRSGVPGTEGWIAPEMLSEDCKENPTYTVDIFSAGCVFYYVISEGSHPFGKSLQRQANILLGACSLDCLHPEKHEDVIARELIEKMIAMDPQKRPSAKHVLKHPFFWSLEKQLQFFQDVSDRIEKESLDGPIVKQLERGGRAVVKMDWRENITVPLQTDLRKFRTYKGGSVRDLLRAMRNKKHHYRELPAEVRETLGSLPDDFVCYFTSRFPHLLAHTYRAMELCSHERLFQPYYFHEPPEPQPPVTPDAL
row,Structure (SMILES),IC50 [nM]
1,"Cc1cc(NS(=O)(=O)Cc2ccccc2)c(F)c(F)c1-c1ccc2nc(N[C@H]3CCCNC3)ncc2c1 [Compound 1009, (S)—N-(2,3-Difluoro-5-methyl-4-(2-(piperidin-3-ylamino)quinazolin-6-yl)phenyl)-1-phenylmethanesulfonamide]",4.9
2,"O=S(=O)(Cc1ccccc1)Nc1ccc(F)c(-c2ccc3nc(N[C@H]4CCCNC4)ncc3c2)c1 [Compound 1005, (S)—N-(4-Fluoro-3-(2-(piperidin-3-ylamino)quinazolin-6-yl)phenyl)-1-phenylmethanesulfonamide]",79
3,"O=S(=O)(Cc1ccccc1)Nc1ccc(-c2cc3cnc(N[C@H]4CCCNC4)nc3cc2F)c(F)c1F [Compound 1015, (S)—N-(2,3-Difluoro-4-(7-fluoro-2-(piperidin-3-ylamino)quinazolin-6-yl)phenyl)-1-phenylmethanesulfonamide]",3.1
4,"CCc1cc(-c2ccc(NS(=O)(=O)Cc3ccccc3)c(F)c2)cc2cnc(N[C@@H]3CNC[C@@H](F)C3)nc12 [Compound 1017, N-(4-(8-Ethyl-2-(((3S,5S)-5-fluoropiperidin-3-yl)amino)quinazolin-6-yl)-2-fluorophenyl)-1-phenylmethanesulfonamide]",0.18
5,"O=S(=O)(Cc1ccccc1)Nc1c(F)cc(-c2ccc3nc(N[C@H]4CCCNC4)ncc3c2)c(F)c1F [Compound 1003, (S)-1-Phenyl-N-(2,3,6-trifluoro-4-(2-(piperidin-3-ylamino)quinazolin-6-yl)phenyl)methanesulfonamide]",0.65
6,"O=S(=O)(Cc1ccccc1)Nc1cc(F)c(-c2ccc3nc(N[C@H]4CCCNC4)ncc3c2)c(F)c1F [Compound 1014, (S)-1-Phenyl-N-(2,3,5-trifluoro-4-(2-(piperidin-3-ylamino)quinazolin-6-yl)phenyl)methanesulfonamide hydrochloride]",2.1
7,"O=S(=O)(Cc1ccccc1)Nc1c(F)cc(-c2ccc3nc(N[C@@H]4CNC[C@@H](F)C4)ncc3c2)cc1F [Compound 1013, N-(2,6-Difluoro-4-(2-(((3S,5S)-5-fluoropiperidin-3-yl)amino)quinazolin-6-yl)phenyl)-1-phenylmethanesulfonamide]",0.51
8,"O=S(=O)(Cc1ccccc1)Nc1cccc(-c2ccc3nc(N[C@H]4CCCNC4)ncc3c2)c1F [Compound 1006, (S)—N-(2-Fluoro-3-(2-(piperidin-3-ylamino)quinazolin-6-yl)phenyl)-1-phenylmethanesulfonamide]",100
9,"O=S(=O)(Cc1ccccc1)Nc1ccc(-c2ccc3nc(N[C@H]4CCCNC4)ncc3c2)c(F)c1F [Compound 1001, (S)—N-(2,3-Difluoro-4-(2-(piperidin-3-ylamino)quinazolin-6-yl)phenyl)-1-phenylmethanesulfonamide]",0.57
10,"CCc1cc(-c2ccc(NS(=O)(=O)CCC(F)(F)F)c(F)c2)cc2cnc(N[C@H]3CC[C@H](N(C)C)CC3)nc12 [Compound 1018, N-(4-(2-(((1,4-trans)-4-(Dimethylamino)cyclohexyl)amino)-8-ethylquinazolin-6-yl)-2-fluorophenyl)-3,3,3-trifluoropropane-1-sulfonamide]",0.25
11,"CCC(F)(F)CS(=O)(=O)Nc1ccc(-c2ccc3nc(N[C@H]4CCCNC4)ncc3c2)c(F)c1F [Compound 1007, (S)—N-(2,3-Difluoro-4-(2-(piperidin-3-ylamino)quinazolin-6-yl)phenyl)-2,2-difluorobutane-1-sulfonamide]",2.9
12,"O=S(=O)(Cc1ccccc1)Nc1c(F)cc(-c2ccc3nc(N[C@H]4CCCNC4)ncc3c2)cc1F [Compound 1011, (S)—N-(2,6-Difluoro-4-(2-(piperidin-3-ylamino)quinazolin-6-yl)phenyl)-1-phenylmethanesulfonamide]",0.53
13,"O=S(=O)(CCC(F)(F)F)Nc1ccc(-c2ccc3nc(N[C@H]4CCCNC4)ncc3c2)c(F)c1F [Compound 1002, (S)—N-(2,3-Difluoro-4-(2-(piperidin-3-ylamino)quinazolin-6-yl)phenyl)-3,3,3-trifluoropropane-1-sulfonamide]",7.6
14,"O=S(=O)(Cc1ccccc1)Nc1ccc(F)c(-c2ccc3nc(N[C@H]4CCCNC4)ncc3c2)c1F [Compound 1004, (S)—N-(2,4-Difluoro-3-(2-(piperidin-3-ylamino)quinazolin-6-yl)phenyl)-1-phenylmethanesulfonamide]",150
15,"O=S(=O)(Cc1ccccc1)Nc1ccc(Cl)c(-c2ccc3nc(N[C@H]4CCCNC4)ncc3c2)c1F [Compound 1008, (S)—N-(4-Chloro-2-fluoro-3-(2-(piperidin-3-ylamino)quinazolin-6-yl)phenyl)-1-phenylmethanesulfonamide]",30
16,"O=S(=O)(Cc1ccccc1)Nc1ccc(-c2ccc3nc(N[C@H]4CCCNC4)ncc3c2F)c(F)c1F [Compound 1012, (S)—N-(2,3-Difluoro-4-(5-fluoro-2-(piperidin-3-ylamino)quinazolin-6-yl)phenyl)-1-phenylmethanesulfonamide]",15
17,"O=S(=O)(Cc1ccccc1)Nc1ccc(-c2ccc3nc(N[C@H]4CCCNC4)ncc3c2)cc1F [Compound 1010, (S)—N-(2-Fluoro-4-(2-(piperidin-3-ylamino)quinazolin-6-yl)phenyl)-1-phenylmethanesulfonamide]",11
18,"CCc1cc(-c2ccc(NS(=O)(=O)Cc3ccccc3)cc2F)cc2cnc(N[C@@H]3CNC[C@@H](F)C3)nc12 [Compound 1016, N-(4-(8-Ethyl-2-(((3S,5S)-5-fluoropiperidin-3-yl)amino)quinazolin-6-yl)-3-fluorophenyl)-1-phenylmethanesulfonamide Formate]",0.46

# From patent US20220249487A1, “QUINAZOLINYL COMPOUNDS AND METHODS OF USE” (Genentech, Inc., priority 2019, published 2022)
